# Experiments:
# [1] = system: EGFR, ERK1, ERK2, and AKT; experiment: Phosphorylation of signaling proteins in HT29 cells; type: cell-based, human
# Experimental: These effects were detected with as little as […] of EGCG, and within 5 minutes. Phosphorylation of EGFR, ERK1, ERK2, and AKT were suppressed in cells treated with methyl-β-cyclodextrin, which depletes plasma membrane cholesterol. […] In addition, the inhibitory effect of EGCG on phosphorylation of EGFR was not blocked by the addition of cholesterol on the growth medium. These findings provide evidence that EGCG can alter membrane domain organization in colon cancer cells ant that this is not due to cholesterol depletion. It was noted that pre-treatment of the cells with EGCG or Poly E inhibited the binding of Alexa 488-labeled EGF to the cell surface receptor EGFR.
# [2] = system: PGE2; experiment: PGE2 production assay (EIA) in SW837 cells; type: cell-based, human; details: 10, 20 or 40 μg/mL, 18 hours, 20 μM arachidonic acid
# Experimental: SW837 human colon cancer cells were plated into 35-mm dishes and grown to 60% confluence. The cells were then treated with EGCG (0, 10, 20, or 40 μg/mL) in serum minus medium containing 20 μM arachidonic acid (Sigma) for 18 hours. The cell free medium was then collected and the amounts of PGE2 released by cells into the medium were measured using an EIA kit (Cayman Chemicals, Ann Arbor, Mich.), according to the manufacturer's instructions. Production of PGE2 was normalized to the protein concentration of the cells.
# [3] = system: EGFR, HER2, HER3, Akt and ERK; experiment: Western blot analysis in SW837 cells, total levels of the respective proteins; type: cell-based, human; details: 20 μg/mL, during the time course
# Source text: Total cellular protein was extracted and equivalent amounts of protein can be determined by western blot analysis using the methods described in Suzui, et al., Cancer Res., 62:3997-4006 (2002). The primary antibodies for several proteins are described in Masuda et al., Clin Cancer Res., 7:4220-4229 (2001); Masuda et al., Clin Cancer Res., 9:3486-3491 (2003); and Shimizu et al., Clin Cancer Res., 11:2735-2746 (2005). The primary antibodies for HER3 (2F12) and COX-2 (PG27) were purchased from Upstate Cell Signaling Solutions (Charlottesville, Va.) and Oxford Biochemical Research (Oxford, Mich.), respectively. To examine the levels of expression of the phosphorylated (i.e. activated) form of the HER3 protein (p-HER3), cellular lysates (1 mg/mL) were incubated with 4 μg anti-HER3 antibody overnight at 4° C. with slow agitation, and immune complexes were then precipitated by adding protein A/G agarose (sc-2003, Santa Cruz Biotechnology, Santa Cruz, Calif.). After incubating for 2 hours at 4° C., the beads were washed with lysis buffer, and bound proteins were eluted into the sample buffer and subjected to western blot analysis, as described above. The p-HER3 protein was then detected by using an anti-phospho-tyrosine antibody (PY-20-HRP, BD Transduction Laboratories, San Diego, Calif.). An antibody to actin was used as a loading control. […]
# [4] = obtained in a clinical study; value said to be in the range of the peak; cited from earlier work
substance,measurement,setting,value
(−)-epigallocatechin gallate,inhibitory effect on phosphorylation of EGFR on addition of cholesterol to the growth medium,[1],not blocked
same,levels of PGE2,[2],decrease
same,total levels of the respective proteins,[3],no significant changes
same,peak plasma concentration,[4],~1.0 µg/mL
